Measured values taken from ChEMBL document CHEMBL5096151, “Phytocannabinoid Pharmacology: Medicinal Properties of Cannabis sativa Constituents Aside from the "Big Two"” (J Nat Prod, 2021).

How the values were obtained:
Cytochrome P450 1A1 = Cytochrome P450 1A1 (Homo sapiens, UniProt P04798); assay: Inhibition of recombinant CYP1A1 (unknown origin) preincubated with NADPH for 20 mins and measured after 30 min; assay type: ADME
[1] = biological target: Transient receptor potential cation channel subfamily V member 4 (Homo sapiens, UniProt Q9HBA0); assay: Agonist activity at ionomycin-stimulated TRPV4 (unknown origin) channel desensitization in presence of 4alphaPDD
Sequence of Transient receptor potential cation channel subfamily V member 4 (Q9HBA0 whole entry): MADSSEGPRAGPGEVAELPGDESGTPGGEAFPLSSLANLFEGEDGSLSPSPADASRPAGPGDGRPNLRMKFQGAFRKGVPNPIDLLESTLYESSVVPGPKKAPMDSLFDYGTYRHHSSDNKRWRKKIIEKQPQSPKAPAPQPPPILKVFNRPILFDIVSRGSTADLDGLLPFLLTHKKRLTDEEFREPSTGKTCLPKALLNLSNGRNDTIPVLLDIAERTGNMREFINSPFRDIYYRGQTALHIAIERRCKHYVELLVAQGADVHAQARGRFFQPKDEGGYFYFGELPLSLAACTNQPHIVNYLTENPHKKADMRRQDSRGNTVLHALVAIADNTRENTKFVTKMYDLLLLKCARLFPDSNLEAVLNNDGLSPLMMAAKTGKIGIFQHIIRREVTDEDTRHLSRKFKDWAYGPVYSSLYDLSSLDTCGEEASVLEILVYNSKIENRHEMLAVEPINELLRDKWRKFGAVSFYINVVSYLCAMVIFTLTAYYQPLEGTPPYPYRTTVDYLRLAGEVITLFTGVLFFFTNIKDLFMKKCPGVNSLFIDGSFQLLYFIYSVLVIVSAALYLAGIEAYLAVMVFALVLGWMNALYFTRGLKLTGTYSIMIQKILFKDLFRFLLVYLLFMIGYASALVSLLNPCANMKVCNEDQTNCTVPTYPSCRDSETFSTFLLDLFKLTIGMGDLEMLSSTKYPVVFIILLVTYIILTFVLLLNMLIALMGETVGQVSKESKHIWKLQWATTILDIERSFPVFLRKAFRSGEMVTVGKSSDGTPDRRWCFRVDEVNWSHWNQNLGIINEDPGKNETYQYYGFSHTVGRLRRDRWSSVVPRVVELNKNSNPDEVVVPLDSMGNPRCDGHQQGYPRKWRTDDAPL

Cytochrome P450 2B6 [2] = biological target: T1, Cytochrome P450 2B6 (Homo sapiens, UniProt P20813); assay: Mixed inhibition of recombinant CYP2B6 (unknown origin) using coumarin as substrate in presence of NADPH-generating system by Lineweaver-burk plots analysis; assay type: ADME
T1 sequence (P20813 whole entry): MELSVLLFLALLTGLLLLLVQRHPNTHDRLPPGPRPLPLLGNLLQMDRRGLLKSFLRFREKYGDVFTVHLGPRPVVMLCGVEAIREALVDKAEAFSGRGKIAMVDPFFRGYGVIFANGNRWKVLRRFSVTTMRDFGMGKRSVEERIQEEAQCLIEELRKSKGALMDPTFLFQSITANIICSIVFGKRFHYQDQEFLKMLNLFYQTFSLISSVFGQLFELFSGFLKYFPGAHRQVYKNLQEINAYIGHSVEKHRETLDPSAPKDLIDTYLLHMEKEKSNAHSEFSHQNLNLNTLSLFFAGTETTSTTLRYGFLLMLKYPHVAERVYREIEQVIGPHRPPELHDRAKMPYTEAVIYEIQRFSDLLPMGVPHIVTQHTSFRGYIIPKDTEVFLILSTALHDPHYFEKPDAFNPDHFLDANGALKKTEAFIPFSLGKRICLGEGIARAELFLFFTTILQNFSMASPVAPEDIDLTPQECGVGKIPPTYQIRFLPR

[3] = biological target: G-protein coupled receptor 6 (Homo sapiens, UniProt P46095); assay: Binding affinity to human GPR6 expressed in HEK293 cells assessed as reduction in cAMP level by measuring efficacy incubated for 1 hr by HTRF assay relative to control; assay type: cell-based
Sequence of G-protein coupled receptor 6 (P46095 whole entry): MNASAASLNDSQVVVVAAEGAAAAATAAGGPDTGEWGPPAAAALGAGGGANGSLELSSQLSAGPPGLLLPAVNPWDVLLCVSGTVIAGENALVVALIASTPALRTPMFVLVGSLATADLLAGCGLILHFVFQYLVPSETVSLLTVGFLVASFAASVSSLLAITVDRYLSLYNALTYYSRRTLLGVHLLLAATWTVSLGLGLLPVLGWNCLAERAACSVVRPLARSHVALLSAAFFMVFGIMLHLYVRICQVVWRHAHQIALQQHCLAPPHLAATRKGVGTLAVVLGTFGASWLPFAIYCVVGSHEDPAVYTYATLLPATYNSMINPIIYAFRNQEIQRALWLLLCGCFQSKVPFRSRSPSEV

Cytochrome P450 2B6 [4] = biological target: T1, Cytochrome P450 2B6; assay: Mixed inhibition of recombinant CYP2B6 (unknown origin) using coumarin as substrate in presence of NADPH-generating system; assay type: ADME
[5] = biological target: T2, Transient receptor potential cation channel subfamily A member 1 (Homo sapiens, UniProt O75762); assay: Agonist activity at TRPA1 (unknown origin) activation assessed as efficacy relative to control; conditions: filed as agonist
T2 sequence (O75762 whole entry): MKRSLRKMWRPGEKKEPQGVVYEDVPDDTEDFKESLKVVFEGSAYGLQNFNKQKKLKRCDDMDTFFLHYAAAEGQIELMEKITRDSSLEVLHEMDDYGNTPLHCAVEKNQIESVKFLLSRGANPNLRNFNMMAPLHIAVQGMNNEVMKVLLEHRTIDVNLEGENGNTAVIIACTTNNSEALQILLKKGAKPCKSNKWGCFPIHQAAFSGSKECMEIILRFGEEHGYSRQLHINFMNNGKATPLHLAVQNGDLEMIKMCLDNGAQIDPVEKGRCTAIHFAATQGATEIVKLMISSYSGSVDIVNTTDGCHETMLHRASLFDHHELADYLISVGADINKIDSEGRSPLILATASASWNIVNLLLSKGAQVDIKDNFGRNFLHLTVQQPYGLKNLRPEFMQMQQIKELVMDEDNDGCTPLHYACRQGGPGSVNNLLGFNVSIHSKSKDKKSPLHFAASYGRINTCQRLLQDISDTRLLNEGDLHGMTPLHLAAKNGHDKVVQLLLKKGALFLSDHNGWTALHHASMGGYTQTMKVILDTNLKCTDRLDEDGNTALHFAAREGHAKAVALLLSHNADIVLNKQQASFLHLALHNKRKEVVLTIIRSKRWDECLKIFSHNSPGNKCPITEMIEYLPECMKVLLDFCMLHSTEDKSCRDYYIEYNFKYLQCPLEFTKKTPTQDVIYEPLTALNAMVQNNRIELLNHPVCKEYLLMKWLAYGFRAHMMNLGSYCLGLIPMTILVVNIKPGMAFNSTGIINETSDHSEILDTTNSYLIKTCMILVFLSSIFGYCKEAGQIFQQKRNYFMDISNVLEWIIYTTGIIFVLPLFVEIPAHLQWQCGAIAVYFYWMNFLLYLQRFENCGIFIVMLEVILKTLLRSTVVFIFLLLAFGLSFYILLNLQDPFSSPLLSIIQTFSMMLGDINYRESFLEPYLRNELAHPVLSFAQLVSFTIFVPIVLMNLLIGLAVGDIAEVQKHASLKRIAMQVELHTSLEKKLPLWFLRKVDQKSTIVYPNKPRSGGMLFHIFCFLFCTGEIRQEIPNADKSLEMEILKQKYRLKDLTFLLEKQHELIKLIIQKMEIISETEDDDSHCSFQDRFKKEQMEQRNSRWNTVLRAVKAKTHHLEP

[6] = biological target: Transient receptor potential cation channel subfamily V member 1 (Homo sapiens, UniProt Q8NER1); assay: Agonist activity at ionomycin-stimulated TRPV1 (unknown origin) channel desensitization in presence of capsaicin
Sequence of Transient receptor potential cation channel subfamily V member 1 (Q8NER1 whole entry): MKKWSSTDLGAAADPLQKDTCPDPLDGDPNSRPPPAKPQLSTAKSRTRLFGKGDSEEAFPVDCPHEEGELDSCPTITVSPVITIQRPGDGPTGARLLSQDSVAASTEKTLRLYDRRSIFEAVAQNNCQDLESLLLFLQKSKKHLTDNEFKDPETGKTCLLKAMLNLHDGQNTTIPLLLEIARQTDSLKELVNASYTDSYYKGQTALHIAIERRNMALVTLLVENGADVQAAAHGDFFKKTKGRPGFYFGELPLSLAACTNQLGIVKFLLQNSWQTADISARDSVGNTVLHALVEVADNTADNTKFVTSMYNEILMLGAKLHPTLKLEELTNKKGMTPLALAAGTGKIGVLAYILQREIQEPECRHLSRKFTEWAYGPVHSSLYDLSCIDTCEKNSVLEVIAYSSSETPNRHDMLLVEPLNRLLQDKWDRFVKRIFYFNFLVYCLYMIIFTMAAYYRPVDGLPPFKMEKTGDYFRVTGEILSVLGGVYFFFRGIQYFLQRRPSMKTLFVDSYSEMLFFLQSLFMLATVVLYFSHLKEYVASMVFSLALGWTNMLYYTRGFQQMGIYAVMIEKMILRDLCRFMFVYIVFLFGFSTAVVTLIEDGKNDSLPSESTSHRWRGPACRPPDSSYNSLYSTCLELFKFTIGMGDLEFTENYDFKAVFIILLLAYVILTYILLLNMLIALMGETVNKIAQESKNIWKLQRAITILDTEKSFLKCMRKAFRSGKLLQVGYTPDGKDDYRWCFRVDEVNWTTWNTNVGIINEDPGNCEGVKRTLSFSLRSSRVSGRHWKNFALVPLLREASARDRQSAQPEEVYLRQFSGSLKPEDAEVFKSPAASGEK

[7] = biological target: T2, Transient receptor potential cation channel subfamily A member 1; assay: Agonist activity at TRPA1 (unknown origin) channel desensitization in presence of isothiocyanate
Cytochrome P450 2D6 = Cytochrome P450 2D6 (Homo sapiens, UniProt P10635); assay: Inhibition of CYP2D6 in human liver microsomes by measuring inhibition constant in presence of NADPH-generating system incubated for 20 mins; assay type: ADME, Microsome
Sequence of Cytochrome P450 2D6 (P10635 whole entry): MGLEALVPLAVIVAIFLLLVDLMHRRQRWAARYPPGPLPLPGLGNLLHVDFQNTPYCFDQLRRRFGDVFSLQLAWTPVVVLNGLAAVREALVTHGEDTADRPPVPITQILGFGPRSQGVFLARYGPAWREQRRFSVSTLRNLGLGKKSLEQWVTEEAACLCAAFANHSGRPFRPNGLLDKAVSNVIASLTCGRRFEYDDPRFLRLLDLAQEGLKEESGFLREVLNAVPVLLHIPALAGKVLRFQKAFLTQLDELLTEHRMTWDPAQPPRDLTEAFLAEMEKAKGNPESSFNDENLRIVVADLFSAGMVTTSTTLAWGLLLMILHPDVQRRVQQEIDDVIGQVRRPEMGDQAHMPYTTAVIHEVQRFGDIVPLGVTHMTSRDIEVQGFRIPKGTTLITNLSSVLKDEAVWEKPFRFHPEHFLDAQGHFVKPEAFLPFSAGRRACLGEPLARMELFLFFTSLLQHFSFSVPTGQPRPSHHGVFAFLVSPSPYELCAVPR

[8] = biological target: T2, Transient receptor potential cation channel subfamily A member 1; assay: Agonist activity at TRPA1 (unknown origin) activation
[9] = biological target: T3, Transient receptor potential cation channel subfamily V member 2 (Homo sapiens, UniProt Q9Y5S1); assay: Agonist activity at ionomycin-stimulated TRPV2 (unknown origin) activation
T3 sequence (Q9Y5S1 whole entry): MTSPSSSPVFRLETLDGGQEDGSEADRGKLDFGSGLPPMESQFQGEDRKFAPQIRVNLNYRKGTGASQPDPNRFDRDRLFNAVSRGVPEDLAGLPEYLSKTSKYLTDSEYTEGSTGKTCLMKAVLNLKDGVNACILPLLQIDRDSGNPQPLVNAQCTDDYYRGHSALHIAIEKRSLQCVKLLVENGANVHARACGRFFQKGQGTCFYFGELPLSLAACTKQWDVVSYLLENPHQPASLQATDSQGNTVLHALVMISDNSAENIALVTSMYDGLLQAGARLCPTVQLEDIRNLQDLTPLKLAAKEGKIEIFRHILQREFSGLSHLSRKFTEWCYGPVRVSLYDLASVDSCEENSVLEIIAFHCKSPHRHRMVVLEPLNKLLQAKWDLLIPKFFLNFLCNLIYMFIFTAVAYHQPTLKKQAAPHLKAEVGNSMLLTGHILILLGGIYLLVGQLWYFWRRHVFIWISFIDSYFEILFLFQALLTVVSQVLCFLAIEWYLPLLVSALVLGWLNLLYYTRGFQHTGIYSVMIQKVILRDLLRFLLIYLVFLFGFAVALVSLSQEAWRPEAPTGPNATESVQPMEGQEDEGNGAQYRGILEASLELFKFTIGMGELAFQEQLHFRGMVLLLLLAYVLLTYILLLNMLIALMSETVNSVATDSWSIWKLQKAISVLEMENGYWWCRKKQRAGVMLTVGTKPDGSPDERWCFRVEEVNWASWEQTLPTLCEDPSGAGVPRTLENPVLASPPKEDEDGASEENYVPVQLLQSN

[10] = biological target: T4, Transient receptor potential cation channel subfamily V member 2 (Homo sapiens) (UniProt Q9Y5S1); assay: Agonist activity at ionomycin-stimulated TRPV2 (unknown origin) activation assessed as efficacy relative to control; conditions: filed as agonist
T4 sequence (whole entry): T3 sequence (Q9Y5S1 whole entry)

[11] = biological target: T5, Transient receptor potential cation channel subfamily V member 3 (Homo sapiens, UniProt Q8NET8); assay: Agonist activity at ionomycin-stimulated TRPV3 (unknown origin) activation
T5 sequence (Q8NET8 whole entry): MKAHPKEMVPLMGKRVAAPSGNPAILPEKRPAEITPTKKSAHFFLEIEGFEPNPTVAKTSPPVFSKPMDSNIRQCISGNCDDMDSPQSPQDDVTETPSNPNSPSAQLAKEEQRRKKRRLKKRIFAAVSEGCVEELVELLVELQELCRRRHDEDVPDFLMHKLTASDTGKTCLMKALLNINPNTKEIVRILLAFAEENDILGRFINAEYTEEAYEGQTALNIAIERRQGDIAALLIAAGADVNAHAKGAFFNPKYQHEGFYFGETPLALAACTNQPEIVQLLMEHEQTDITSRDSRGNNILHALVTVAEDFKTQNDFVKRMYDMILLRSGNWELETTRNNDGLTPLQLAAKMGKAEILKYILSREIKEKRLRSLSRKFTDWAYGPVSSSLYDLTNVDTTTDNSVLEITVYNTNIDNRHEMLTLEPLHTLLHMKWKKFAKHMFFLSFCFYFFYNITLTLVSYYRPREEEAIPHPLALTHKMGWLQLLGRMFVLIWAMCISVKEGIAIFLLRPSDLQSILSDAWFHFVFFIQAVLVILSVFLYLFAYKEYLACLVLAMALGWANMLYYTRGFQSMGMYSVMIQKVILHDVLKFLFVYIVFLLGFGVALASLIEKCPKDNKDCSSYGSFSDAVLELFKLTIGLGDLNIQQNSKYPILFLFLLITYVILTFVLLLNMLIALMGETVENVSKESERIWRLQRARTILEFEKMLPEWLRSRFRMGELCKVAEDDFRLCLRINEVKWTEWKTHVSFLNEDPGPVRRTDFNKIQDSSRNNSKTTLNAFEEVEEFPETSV

[12] = biological target: T6, Transient receptor potential cation channel subfamily V member 3 (Homo sapiens) (UniProt Q8NET8); assay: Agonist activity at ionomycin-stimulated TRPV3 (unknown origin) activation assessed as efficacy relative to control
T6 sequence (whole entry): T5 sequence (Q8NET8 whole entry)

Sequence of Cytochrome P450 1A1 (P04798 whole entry): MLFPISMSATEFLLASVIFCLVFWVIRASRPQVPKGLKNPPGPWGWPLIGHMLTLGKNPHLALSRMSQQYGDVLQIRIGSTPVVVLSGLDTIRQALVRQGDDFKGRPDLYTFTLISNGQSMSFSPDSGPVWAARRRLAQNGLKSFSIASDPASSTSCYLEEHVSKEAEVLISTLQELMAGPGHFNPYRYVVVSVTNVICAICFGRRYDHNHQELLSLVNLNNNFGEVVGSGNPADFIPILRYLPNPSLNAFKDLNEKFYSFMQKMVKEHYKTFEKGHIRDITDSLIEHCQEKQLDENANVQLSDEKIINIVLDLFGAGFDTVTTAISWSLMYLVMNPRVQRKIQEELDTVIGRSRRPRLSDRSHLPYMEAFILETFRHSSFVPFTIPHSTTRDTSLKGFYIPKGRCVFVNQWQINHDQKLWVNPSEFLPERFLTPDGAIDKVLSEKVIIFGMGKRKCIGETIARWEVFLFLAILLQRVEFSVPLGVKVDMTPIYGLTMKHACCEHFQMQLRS

## C=C(C)[C@@H]1CCC(C)=C[C@H]1c1c(O)cc(CCC)cc1O [CANNABIDIVARIN]
Cytochrome P450 1A1
  IC50: 0.06 µM
[1]
  IC50: 2.9 µM
Cytochrome P450 2B6 [2]
  Ki: 1.3 µM
[3]
  Efficacy: 90%
Cytochrome P450 2B6 [4]
  IC50: 7.4 µM
[5]
  Efficacy: 105%
[6]
  IC50: 10 µM
[7]
  IC50: 1.3 µM
Cytochrome P450 2D6
  Ki: 5.8 µM
[8]
  EC50: 0.42 µM
[9]
  EC50: 7.3 µM
[10]
  Efficacy: 50%
[11]
  EC50: 1.7 µM
[12]
  Efficacy: 16%
